Entries after “also recorded” stand apart in the source; their conditions may differ.
How the values were obtained:
rhodopsin = assay: Rhodopsin measured spectrophotometrically in retinal extracts of treated Balb/c mice; format: in vivo; details: Balb/c (wild-type) mice, 25 mg/kg daily oral, 10 days
Experimental: Thus, ACPHS-14 was used as a representative “first component” of the present disclosure in order to assess the feasibility of using β-carotene as the “second component” in the co-drug strategy. Accordingly, an experiment was conducted to determine whether partial reduction in functional rhodopsin (opsin with conjugated 11-cis-retinal) induced by oral ACPHS-14 in mice can be compensated by co-administration with β-carotene. An experiment was also conducted to determine whether co-administration of ACPHS-14 and β-carotene can restore retinal function as can be assessed by electroretinography (ERG). It was previously reported that ACPHS-14 can induce a pronounced reduction in serum RBP4 along with stabilization of TTR tetramers (Cioffi, C. L. et al. 2021).
The experiments were conducted in Balb/c mice. Three groups of mice were used: control untreated mice; mice treated with ACPHS-14; and mice treated with the ACPHS-14 plus β-carotene combination. […] Following compound dosing, retinal function in the mice was assessed by ERG as previously described (Racz, B. et al. 2018). […] Rhodopsin was measured spectrophotometrically in the retinal extracts using a previously published protocol (Racz, B. et al. 2018).

Balb/c mice = assay: Retinal function by electroretinography (scotopic ERG a-wave) in treated Balb/c mice; format: in vivo; details: 1.89 log cd*s/m2 light intensity; 25 mg/kg daily oral, 10 days
Experimental: The experiments were conducted in Balb/c mice. Three groups of mice were used: control untreated mice; mice treated with ACPHS-14; and mice treated with the ACPHS-14 plus β-carotene combination. ACPHS-14 was administered through oral gavage at a 25 mg/kg dose formulated into the chow to ensure a standard daily oral dosing of the compound at the 25 mg/kg dose. β-carotene was dissolved in olive oil and was administered through oral gavage daily at a daily 6 mg/kg dose. Dosing duration was 10 days. Following compound dosing, retinal function in the mice was assessed by ERG as previously described (Racz, B. et al. 2018).

serum RBP4 = details: mice; cited from earlier work
RBP4 = RBP4 (Homo sapiens, UniProt P02753); details: cited from earlier work
[1] = in vivo; cited from earlier work
Abca4-/- mouse model = details: cited from earlier work
TTR tetramers = TTR tetramers (Homo sapiens, UniProt P02766); details: cited from earlier work
[2] = in vitro; cited from earlier work
[3] = cited from earlier work
[4] = ATTR-CM patients, Phase III; cited from earlier work
[5] = cited from earlier work; remark: listed apart in the source
[6] = long-term use in cancer patients; cited from earlier work
[7] = Phase 2, dry AMD patients; no ocular AEs with placebo; cited from earlier work
[8] = patients treated for TTR amyloidosis; cited from earlier work

Cc1n[nH]c(C)c1N1CCN(c2cc(C(=O)O)ccc2F)CC1 [ACPHS-14]
rhodopsin in comparison to untreated mice (rhodopsin): significantly reduced rhodopsin | reduction of scotopic ERG a-wave amplitude in comparison to untreated mice (Balb/c mice): 45% | RBP4-lowering efficacy (serum RBP4): excellent RBP4-lowering efficacy; also recorded: significantly decreasing the concentration of serum RBP4 | competition with retinol binding to RBP4 (RBP4): does not compete with retinol binding to RBP4 | oral bioavailability [1]: orally bioavailable | bisretinoid reduction (Abca4-/- mouse model; Abca4-/- mouse model): excellent bisretinoid reduction | stabilization of TTR tetramers (TTR tetramers): inducing stabilization of TTR tetramers

[2H]C([2H])([2H])C(/C=C/C=C(C)/C=C/C1=C(C)CCCC1(C)C)=C\C=O [C20-D3-retinaldehyde]
rate of dimer formation relative to unlabeled retinaldehyde (times less rapidly) [2]: 12 times | reduction of bisretinoid A2E formation [2]: 7 fold

[2H]C([2H])([2H])C(/C=C/C=C(C)/C=C/C1=C(C)CCCC1(C)C)=C\COC(C)=O [C20-D3-retinyl acetate]
inhibition of bisretinoid synthesis and normalization of complement system dysregulation in the retina (Abca4-/- mouse model; Abca4-/- mice, model of Stargardt disease (STGD1)): effective

CC(=O)N1CCc2c(C(=O)N3CCC(c4ccc(F)c(F)c4C(F)(F)F)CC3)n[nH]c2C1 [Tinlarebant]
ocular adverse effects in a subset of patients [3]: asymptomatic delayed dark adaptation (measured only instrumentally) or symptomatic xanthopsia

O=C(O)c1ccc2nc(-c3cc(Cl)cc(Cl)c3)oc2c1 [compound 3, tafamidis]
reduction of the rate of cardiovascular-related hospitalizations compared to placebo controls [4]: 32% | reduction of the risk of death compared to placebo controls [4]: 30% | patients who do not respond [5]: Approximately 30%

CC1=C(/C=C/C(C)=C/C=C/C(C)=C/C(=O)Nc2ccc(O)cc2)C(C)(C)CCC1 [fenretinide]
yearly prevalence of transient and reversible ocular AEs such as diminished dark adaptation [6]: 5.8-6.7% | drug-treated patients with reversible reduction in dark adaptation [7]: ~ 10%

patisiran
ocular symptoms in clinical use [8]: symptoms of night blindness in a subset of patients

Reference: patent publication US20260216177A1, “CO-DRUG, CO-ADMINISTRATION, AND SEQUENTIAL ADMINISTRATION OF SELECTIVE TTR LIGAND AND C20-D3-RETINOL FOR ELIMINATION OF MECHANISM-BASED OCULAR ADVERSE EFFECTS IN TREATING MACULAR DEGENERATION AND TTR AMYLOIDOSIS” (The Trustees of Columbia University in the City of New York, priority 2023, published 2026)
